This note sets out measurements from ChEMBL document CHEMBL4715849, “Recent Progress in the Discovery of Antifungal Agents Targeting the Cell Wall” (J Med Chem, 2020).

Data set [1] concerns Candida albicans. Put plainly: Antifungal activity against Candida albicans CY1002 by NCCLS-based M27-A broth microdilution method. The format is functional.
For data set [2], the system named is Aspergillus fumigatus. Put plainly: Antifungal activity against Aspergillus fumigatus CF1003 by NCCLS-based M27-A broth microdilution method. The class given is functional.
In the next data set the test system is Erythrocyte. Put plainly: Hemolytic activity in ICR mouse red blood cells incubated for 2 hrs by visual observation. The class given is ADME, cell-based.
A short description of data set [3]: Competitive inhibition of Candida albicans AMB-25 glucosamine synthetase using glutamine as substrate incubated for 30 mins by Lineweaver-Burk plot based Dixon plot analysis.
The subject of data set [4] is Candida albicans. The experiment in a line: Antifungal activity against Candida albicans AMB-25 incubated for 48 hrs by serial two-fold dilution method. The class given is functional.
Data set [5] in a line: Inhibition of Candida albicans AMB-25 glucosamine-6-phosphate synthase using glutamine as substrate incubated for 30 mins.
Data set [6] has as its system Aspergillus fumigatus. Put plainly: Antifungal activity against Aspergillus fumigatus IAM2034 incubated for 40 hrs by serial agar dilution method. The format is functional.
Data set [7] deals with Aspergillus fumigatus. The experiment in a line: Antifungal activity against Aspergillus fumigatus IAM2530 incubated for 40 hrs by serial agar dilution method. The class given is functional.
Data set [8] deals with Cryptococcus neoformans. The experiment in a line: Antifungal activity against Cryptococcus neoformans IAM4514 incubated for 40 hrs by serial agar dilution method. The class given is functional.
Data set [9] relates to Cryptococcus neoformans. Put plainly: Antifungal activity against Cryptococcus neoformans D49 incubated for 40 hrs by serial agar dilution method. The class given is functional.
For data set [10], the system named is Candida albicans. The experiment in a line: Antifungal activity against Candida albicans A9540 incubated for 40 hrs by serial agar dilution method. The format is functional.
For data set [11], the system named is Candida albicans. Put plainly: Antifungal activity against Candida albicans IAM 888 incubated for 40 hrs by serial agar dilution method. The class given is functional.
Data set [12] concerns Aspergillus flavus. Put plainly: Antifungal activity against Aspergillus flavus FA21436 NRRL 484 incubated for 40 hrs by serial agar dilution method. The format is functional.
The next data set relates to Fusarium verticillioides. Put plainly: Antifungal activity against Fusarium monoliforme A2284 incubated for 40 hrs by serial agar dilution method. The class given is functional.
The test system of data set [13] is Trichophyton mentagrophytes. Put plainly: Antifungal activity against Trichophyton mentagrophytes D155 incubated for 40 hrs by serial agar dilution method. The class given is functional.
For data set [14], the system named is Trichophyton mentagrophytes. The experiment in a line: Antifungal activity against Trichophyton mentagrophytes N0.4329 incubated for 40 hrs by serial agar dilution method. The class given is functional.
A further data set concerns Blastomyces dermatitidis. The experiment in a line: Antifungal activity against Blastomyces dermatitidis IFO8144 incubated for 40 hrs by serial agar dilution method. The format is functional.
Another data set relates to Sporothrix schenckii. The experiment in a line: Antifungal activity against Sporothrix schenckii IFO8158 incubated for 40 hrs by serial agar dilution method. The format is functional.
The next data set concerns Scedosporium boydii. The experiment in a line: Antifungal activity against Petriellidium boydii IFO8078 incubated for 40 hrs by serial agar dilution method. The class given is functional.
In data set [15] the test system is Candida albicans. The experiment in a line: Antifungal activity against Candida albicans A9540 infected in iv dosed ICR mouse assessed as protection against fungus-induced lethal infection dosed once immediately following fungal challenge and measured on day 20 post infection. The format is functional. The conditions noted are these: 480 h, time 20 day, read-out: PD50.

For the next data set, the target named is Chitotriosidase-1 (Homo sapiens, UniProt Q13231). The experiment in a line: Inhibition of human chitinase1 incubated for 70 mins using 4MU-NAG2 as substrate by fluorescence method.
Data set [16] in a line: Inhibition of Saccharomyces cerevisiae CTS1 incubated for 70 mins by fluorescence method.
For a further data set, the target named is Endochitinase A1 (Aspergillus fumigatus, UniProt Q873Y0). Put plainly: Inhibition of Aspergillus fumigatus chiA1 (Arg28 to His337) expressed in Pichia pastoris incubated for 70 mins using 4MU-NAc3 as substrate by fluorescence method.
The next data set deals with Chitin synthase 2 (Candida albicans, UniProt P30572). The experiment in a line: Inhibition of Chitin synthase 2 in Candida albicans (chs3del::hisG/chs3del::hisG) microsomes using UDP-[U14C]-GlcNac as substrate. Details: species or system Microsome.
In data set [17] the target is T1, Chitin synthase 1 (Candida albicans, UniProt P23316). Put plainly: Inhibition of Chitin synthase 1 in Candida albicans (chs3del::hisG/chs3del::hisG) microsomes using UDP-[U14C]-GlcNac as substrate. Details: species or system Microsome.
A further data set deals with Pichia kudriavzevii. The experiment in a line: Antifungal activity against Candida krusei incubated for 48 to 72 hrs by broth microdilution method. To be noted: time 48-72 hrs. The format is functional.
The subject of data set [18] is Meyerozyma guilliermondii. Put plainly: Antifungal activity against Candida guilliermondii incubated for 48 to 72 hrs by broth microdilution method. The format is functional. The conditions noted are these: time 48-72 hrs.
In data set [19] the test system is Candida albicans. Put plainly: Antifungal activity against Candida albicans ATCC 44373 incubated for 48 to 72 hrs by broth microdilution method. The class given is functional. To be noted: time 48-72 hrs.
The subject of data set [20] is Candida albicans. The experiment in a line: Antifungal activity against Candida albicans ATCC 38248 incubated for 48 to 72 hrs by broth microdilution method. The class given is functional. To be noted: time 48-72 hrs.
Data set [21] relates to Candida albicans. Put plainly: Antifungal activity against Candida albicans ATCC 200955 incubated for 48 to 72 hrs by broth microdilution method. The class given is functional. To be noted: time 48-72 hrs.
For data set [22], the system named is Candida albicans. The experiment in a line: Antifungal activity against Candida albicans ATCC 10231 incubated for 48 to 72 hrs by broth microdilution method. The format is functional. To be noted: time 48-72 hrs.
Data set [23] has as its target T1, Chitin synthase 1. The experiment in a line: Inhibition of Candida albicans chitin synthase 1 expressed in Saccharomyces cerevisiae RRA400-1U cells using [3H]UDP-GlcNAc as substrate by scintillation counting method.
The test system of data set [24] is Candida albicans. Put plainly: Antifungal activity against Candida albicans CAI4 incubated for 24 hrs. The format is functional.
The subject of data set [25] is Candida albicans. The experiment in a line: Antifungal activity against Candida albicans CMCC 76615 incubated for 24 hrs. The format is functional.
In data set [26] the test system is Aspergillus fumigatus. Put plainly: Antifungal activity against Aspergillus fumigatus GIMCC 3.19 incubated for 24 hrs. The format is functional.
The test system of data set [27] is Cryptococcus neoformans. Put plainly: Antifungal activity against Cryptococcus neoformans ATCC 32719 incubated for 24 hrs. The class given is functional.
For data set [28], the system named is Aspergillus flavus. The experiment in a line: Antifungal activity against Aspergillus flavus ATCC 16870 incubated for 24 hrs. The format is functional.

Values after ≈ are worked out from the molar mass of the structure shown. Where only a bound is given, the exact number is not on record here.

T1 sequence (P23316 whole entry): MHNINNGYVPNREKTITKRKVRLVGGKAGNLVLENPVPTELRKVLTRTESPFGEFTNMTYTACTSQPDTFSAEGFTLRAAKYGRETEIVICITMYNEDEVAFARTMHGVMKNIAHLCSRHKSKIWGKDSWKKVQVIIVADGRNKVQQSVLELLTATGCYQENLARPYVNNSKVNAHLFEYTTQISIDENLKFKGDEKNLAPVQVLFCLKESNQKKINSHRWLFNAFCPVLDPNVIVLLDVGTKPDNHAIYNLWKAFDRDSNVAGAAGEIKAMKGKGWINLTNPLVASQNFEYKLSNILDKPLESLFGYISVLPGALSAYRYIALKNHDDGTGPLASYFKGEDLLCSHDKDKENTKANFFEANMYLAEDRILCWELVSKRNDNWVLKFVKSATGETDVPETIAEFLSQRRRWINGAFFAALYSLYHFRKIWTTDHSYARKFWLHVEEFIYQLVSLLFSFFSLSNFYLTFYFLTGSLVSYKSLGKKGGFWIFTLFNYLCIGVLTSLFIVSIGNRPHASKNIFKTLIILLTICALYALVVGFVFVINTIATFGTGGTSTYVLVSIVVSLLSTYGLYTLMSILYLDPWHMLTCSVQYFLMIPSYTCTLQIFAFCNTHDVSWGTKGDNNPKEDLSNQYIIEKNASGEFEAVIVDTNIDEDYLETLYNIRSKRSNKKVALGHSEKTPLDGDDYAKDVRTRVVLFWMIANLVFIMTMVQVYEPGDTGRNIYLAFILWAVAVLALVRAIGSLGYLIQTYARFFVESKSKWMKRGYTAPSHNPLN
Endochitinase A1, sequence (Q873Y0 whole entry): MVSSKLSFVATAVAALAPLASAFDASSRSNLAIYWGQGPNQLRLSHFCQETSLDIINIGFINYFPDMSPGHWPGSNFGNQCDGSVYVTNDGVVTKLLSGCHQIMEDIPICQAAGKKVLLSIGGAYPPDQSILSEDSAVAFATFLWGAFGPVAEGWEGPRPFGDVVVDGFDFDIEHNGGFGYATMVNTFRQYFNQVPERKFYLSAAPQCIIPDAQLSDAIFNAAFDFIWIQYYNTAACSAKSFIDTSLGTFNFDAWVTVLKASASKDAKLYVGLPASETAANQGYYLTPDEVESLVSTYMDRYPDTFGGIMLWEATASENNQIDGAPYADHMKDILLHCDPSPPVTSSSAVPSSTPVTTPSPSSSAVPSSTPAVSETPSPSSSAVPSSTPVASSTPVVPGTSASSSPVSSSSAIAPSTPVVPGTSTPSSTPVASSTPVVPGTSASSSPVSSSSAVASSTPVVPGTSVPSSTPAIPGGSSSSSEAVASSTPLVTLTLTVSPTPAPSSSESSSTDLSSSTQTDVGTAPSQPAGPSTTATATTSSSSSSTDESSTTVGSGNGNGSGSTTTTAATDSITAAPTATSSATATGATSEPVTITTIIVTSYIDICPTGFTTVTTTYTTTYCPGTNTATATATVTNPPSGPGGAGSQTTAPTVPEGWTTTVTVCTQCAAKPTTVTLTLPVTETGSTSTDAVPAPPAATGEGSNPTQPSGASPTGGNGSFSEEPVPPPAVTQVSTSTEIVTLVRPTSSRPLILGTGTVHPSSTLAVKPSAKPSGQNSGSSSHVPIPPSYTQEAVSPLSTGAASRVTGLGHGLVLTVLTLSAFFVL
Chitin synthase 2, sequence (P30572 whole entry): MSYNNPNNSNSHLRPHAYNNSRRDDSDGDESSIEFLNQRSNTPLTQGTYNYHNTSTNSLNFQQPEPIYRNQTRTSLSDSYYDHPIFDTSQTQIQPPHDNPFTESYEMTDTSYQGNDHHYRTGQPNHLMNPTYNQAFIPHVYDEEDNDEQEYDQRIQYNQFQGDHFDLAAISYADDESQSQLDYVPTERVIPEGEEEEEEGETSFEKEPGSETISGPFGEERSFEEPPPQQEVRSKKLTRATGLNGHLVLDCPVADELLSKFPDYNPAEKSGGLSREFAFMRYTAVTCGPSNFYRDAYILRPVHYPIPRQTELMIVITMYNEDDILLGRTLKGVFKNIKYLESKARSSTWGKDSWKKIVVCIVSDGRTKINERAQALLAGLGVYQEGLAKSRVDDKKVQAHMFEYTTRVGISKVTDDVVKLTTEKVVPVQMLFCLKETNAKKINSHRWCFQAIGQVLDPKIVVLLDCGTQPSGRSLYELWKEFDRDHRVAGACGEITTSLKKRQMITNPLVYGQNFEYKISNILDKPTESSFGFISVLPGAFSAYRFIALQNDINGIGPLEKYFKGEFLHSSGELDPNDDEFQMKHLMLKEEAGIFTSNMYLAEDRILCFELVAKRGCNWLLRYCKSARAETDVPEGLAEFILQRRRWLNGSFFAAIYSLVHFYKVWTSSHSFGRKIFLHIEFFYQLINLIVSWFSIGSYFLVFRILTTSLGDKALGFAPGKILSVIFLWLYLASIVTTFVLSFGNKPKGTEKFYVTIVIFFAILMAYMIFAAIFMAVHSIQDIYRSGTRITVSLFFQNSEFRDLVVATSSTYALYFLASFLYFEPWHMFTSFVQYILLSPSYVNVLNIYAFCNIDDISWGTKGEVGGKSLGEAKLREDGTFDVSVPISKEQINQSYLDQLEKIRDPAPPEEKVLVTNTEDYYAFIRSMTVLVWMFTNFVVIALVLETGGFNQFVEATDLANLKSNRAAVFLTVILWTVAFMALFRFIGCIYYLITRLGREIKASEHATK
Chitotriosidase-1, sequence (Q13231 whole entry): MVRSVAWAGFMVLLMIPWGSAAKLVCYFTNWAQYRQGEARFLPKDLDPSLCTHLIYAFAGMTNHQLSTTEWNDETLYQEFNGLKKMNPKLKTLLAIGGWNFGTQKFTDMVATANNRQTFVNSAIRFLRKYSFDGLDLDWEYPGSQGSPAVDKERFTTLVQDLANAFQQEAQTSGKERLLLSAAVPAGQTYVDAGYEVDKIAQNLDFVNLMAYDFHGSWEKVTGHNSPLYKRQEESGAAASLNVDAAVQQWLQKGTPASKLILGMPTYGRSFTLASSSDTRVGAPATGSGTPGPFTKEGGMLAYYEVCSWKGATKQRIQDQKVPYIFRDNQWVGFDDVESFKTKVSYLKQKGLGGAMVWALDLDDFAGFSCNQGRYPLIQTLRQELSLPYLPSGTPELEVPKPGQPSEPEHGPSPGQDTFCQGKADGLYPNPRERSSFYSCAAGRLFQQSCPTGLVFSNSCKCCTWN

Consider `C[C@@H]([C@H](N)C(=O)N[C@H](C(=O)O)[C@H]1O[C@@H](n2ccc(=O)[nH]c2=O)[C@H](O)[C@@H]1O)[C@H](O)c1ccc(O)cn1` [NIKKOMYCIN], for which the values for the MIC50 with Candida albicans [1] and in the data set on Aspergillus fumigatus [2] were 12 µg/mL (≈ 24.2 µM) and 11 µg/mL (≈ 22.2 µM), respectively.
`C[C@@H]1[C@H](O)[C@@H](C)/C=C/C=C/C=C/C=C/C=C/C=C/C=C/[C@H](O[C@@H]2O[C@H](C)[C@@H](O)[C@H](N)[C@@H]2O)C[C@@H]2O[C@](O)(C[C@@H](O)C[C@@H](O)[C@H](O)CC[C@@H](O)C[C@@H](O)CC(=O)O[C@H]1C)C[C@H](O)[C@H]2C(=O)O` [AMPHOTERICIN B] displayed an MHC with Erythrocyte of 8 µg/mL.
As to `COC(=O)/C=C/C(=O)NC[C@H](N)C(=O)O`, the affinity in data set [3] corresponds to a Ki of 100 nM. In the data set with Candida albicans [4], this compound had an MIC greater than 200 µg/mL. The IC50 in data set [5] came out at 4.03 µg/mL (≈ 18.6 µM).
Consider `CN[C@@H]1[C@H](O[C@@H]2OC[C@@H](O)[C@H](O)[C@H]2O)[C@@H](O)[C@H](O[C@H]2c3cc(C)c(C(=O)N[C@H](CO)C(=O)O)c(O)c3-c3c(cc4c(c3O)C(=O)c3cc(OC)cc(O)c3C4=O)[C@@H]2O)O[C@@H]1C`, for which the MIC against Aspergillus fumigatus [6], with Aspergillus fumigatus [7], with Cryptococcus neoformans [8], against Cryptococcus neoformans [9], against Candida albicans [10] and in the data set on Candida albicans [11] was 0.8 µg/mL (≈ 0.934 µM) throughout. Further, the MIC (against Aspergillus flavus [12]; in the data set with Fusarium verticillioides; in data set [13]; in data set [14]; in the data set with Blastomyces dermatitidis; against Sporothrix schenckii) was 0.8 µg/mL (≈ 0.934 µM) each time. The compound also registered an MIC in the data set on Scedosporium boydii of 0.8 µg/mL (≈ 0.934 µM). The ED50 in the data set on Candida albicans [15] worked out at 7.4 mg/kg.
As to `COc1ccccc1-c1noc2nc(C)[nH]c(=O)c12`, the values for the IC50 (against Chitotriosidase-1; in [16]; against Endochitinase A1) were greater than 100000 nM, 500 nM and 2600 nM, respectively.
Consider `COc1ccc2c(Cc3ccc(C(C)(C)C)cc3)c3[n+](cc2c1OC)CCc1cc2c(cc1-3)OCO2`, for which the IC50 against Chitin synthase 2 and on Chitin synthase 1 [17] was 22000 nM each time. Further, the MIC against Pichia kudriavzevii worked out at 1.56 µg/mL; in [18], 6.25 µg/mL; against Candida albicans [19], 1.56 µg/mL; with Candida albicans [20], 1.56 µg/mL; against Candida albicans [21], 1.56 µg/mL; in the data set with Candida albicans [22], 1.56 µg/mL.
In the case of `CC(C)(C)C#CC=CCNc1cccc2[nH]c(=O)ccc12`, at Chitin synthase 1 [23], the inhibitory constant (Ki) amounted to 630 nM. For the same compound, in the data set with Candida albicans [24], the MIC50 was found to be 3.3 µM (≈ 0.925 µg/mL).
On to `O=C(Nc1c(O)c2ccccc2oc1=O)[C@H](O)[C@@H](O)C(=O)N1CCN(c2ccc(Cl)cc2)CC1`, for which the MIC against Candida albicans [25], against Aspergillus fumigatus [26], with Cryptococcus neoformans [27] and in the data set on Aspergillus flavus [28] was 4 µg/mL (≈ 8.2 µM) throughout.
